In patent publication US9078444B2, “Isothiazoline derivatives as insecticidal compounds” (Syngenta Participations AG, priority 2011, dated 2015):

Tests used:
Format in all cases: in vivo
Heliothis virescens = Heliothis virescens (tobacco budworm) egg test on artificial diet; conditions: 96 h, 200 ppm (concentration in well 18 ppm), eggs on artificial diet, egg mortality, larval mortality, growth regulation after 4 days
Protocol: Heliothis virescens (Tobacco Budworm): Eggs (0-24 h old) were placed in 24-well microtiter plate on artificial diet and treated with test solutions at an application rate of 200 ppm (concentration in well 18 ppm) by pipetting. After an incubation period of 4 days, samples were checked for egg mortality, larval mortality, and growth regulation.

Thrips tabaci = Thrips tabaci (onion thrips) sunflower leaf disc test; conditions: foliar, 168 h, 200 ppm sprayed on sunflower leaf discs, mixed ages, mortality after 7 days
Protocol: Thrips tabaci (Onion Thrips): Sunflower leaf discs were placed on agar in a 24-well microtiter plate and sprayed with test solutions at an application rate of 200 ppm. After drying, the leaf discs were infested with a thrips population of mixed ages. After an incubation period of 7 days, samples were checked for mortality.

Diabrotica balteata = Diabrotica balteata (corn root worm) artificial diet test; conditions: 120 h, 200 ppm (concentration in well 18 ppm), L2 larvae, larval mortality and growth regulation after 5 days
Protocol: Diabrotica balteata (Corn Root Worm): A 24-well microtiter plate (MTP) with artificial diet was treated with test solutions at an application rate of 200 ppm (concentration in well 18 ppm) by pipetting. After drying, the MTPs were infested with L2 larvae (6-10 per well). After an incubation period of 5 days, samples were checked for larval mortality and growth regulation.

Tetranychus urticae = Tetranychus urticae (two-spotted spider mite) bean leaf disc test; conditions: foliar, 192 h, 200 ppm sprayed on bean leaf discs, mixed ages, egg, larval and adult mortality 8 days later
Source text: Tetranychus urticae (Two-Spotted Spider Mite): Bean leaf discs on agar in 24-well microtiter plates were sprayed with test solutions at an application rate of 200 ppm. After drying, the leaf discs are infested with mite populations of mixed ages. 8 days later, discs are checked for egg mortality, larval mortality, and adult mortality.

Spodoptera littoralis = Spodoptera littoralis (Egyptian cotton leafworm) cotton leaf disc test; conditions: foliar, 72 h, 200 ppm sprayed on cotton leaf discs, mortality, feeding behavior, growth regulation 3 days after treatment
Protocol: Spodoptera littoralis (Egyptian Cotton Leafworm): Cotton leaf discs were placed on agar in a 24-well microtiter plate and sprayed with test solutions at an application rate of 200 ppm. After drying, the leaf discs were infested with […]. The samples were checked for mortality, feeding behavior, and growth regulation 3 days after treatment (DAT).

Plutella xylostella = Plutella xylostella (diamond back moth) artificial diet test; conditions: 144 h, 200 ppm (concentration in well 18 ppm), L2 larvae, larval mortality and growth regulation after 6 days
Protocol: Plutella xylostella (Diamond Back Moth): 24-well microtiter plate (MTP) with artificial diet was treated with test solutions at an application rate of 200 ppm (concentration in well 18 ppm) by pipetting. After drying, the MTPs were infested with L2 larvae (7-12 per well). After an incubation period of 6 days, samples were checked for larval mortality and growth regulation.

Measured: pest or weed control at 200 ppm

Cc1cc(NC(=O)c2ccc(C3=NSC(c4cc(Cl)cc(Cl)c4)(C(F)(F)F)C3)cc2C)n(C)n1 (stereo not drawn) [Compound A17]
≥ 80%: all assays above

Cc1csc(NC(=O)c2ccc(C3=NSC(c4cc(Cl)cc(Cl)c4)(C(F)(F)F)C3)cc2C)n1 (stereo not drawn) [Compound A18]
≥ 80%: all assays above

Cc1cc(C2=NSC(c3cc(Cl)cc(Cl)c3)(C(F)(F)F)C2)ccc1C(=O)NC1(C)CSC1 (stereo not drawn) [Compound A19]
≥ 80%: all assays above

Cc1cc(C2=NSC(c3cc(Cl)cc(Cl)c3)(C(F)(F)F)C2)ccc1C(=O)NC1C[S+]([O-])C1 (stereo not drawn) [Compound A21]
≥ 80%: all assays above

Cc1cc(C2=NSC(c3cc(Cl)cc(Cl)c3)(C(F)(F)F)C2)ccc1C(=O)NC1CSC1 (stereo not drawn) [Compound A22, 4-[5-(3,5-Dichloro-phenyl)-5-trifluoromethyl-4,5-dihydro-isothiazol-3-yl]-2-methyl-N-thietan-3-yl-benzamide]
≥ 80%: all assays above

CSCCNC(=O)c1ccc(C2=NSC(c3cc(Cl)cc(Cl)c3)(C(F)(F)F)C2)cc1C (stereo not drawn) [Compound A26]
≥ 80%: all assays above

Cc1cc(C2=NSC(c3cc(Cl)cc(Cl)c3)(C(F)(F)F)C2)ccc1C(=O)NC1CCSC1 (stereo not drawn) [Compound A27]
≥ 80%: all assays above

Cc1cc(C2=NSC(c3cc(Cl)cc(Cl)c3)(C(F)(F)F)C2)ccc1C(=O)NCC1CSC1 (stereo not drawn) [Compound A28]
≥ 80%: all assays above

Cc1cc(C2=NSC(c3cc(Cl)cc(Cl)c3)(C(F)(F)F)C2)ccc1C(=O)NCC1CCS1 (stereo not drawn) [Compound A30]
≥ 80%: all assays above

Cc1cc(C2=NSC(c3cc(Cl)cc(Cl)c3)(C(F)(F)F)C2)ccc1C(=O)NCC1CCS1(=O)=O (stereo not drawn) [Compound A31]
≥ 80%: all assays above

Cc1cc(C2=NSC(c3cc(Cl)cc(Cl)c3)(C(F)(F)F)C2)ccc1C(=O)NCCF (stereo not drawn) [Compound A34]
≥ 80%: all assays above

C#CCNC(=O)c1ccc(C2=NSC(c3cc(Cl)cc(Cl)c3)(C(F)(F)F)C2)cc1C (stereo not drawn) [Compound A35]
≥ 80%: all assays above

CCCNC(=O)c1ccc(C2=NSC(c3cc(Cl)cc(Cl)c3)(C(F)(F)F)C2)cc1C (stereo not drawn) [Compound A36]
≥ 80%: all assays above

Cc1cc(C2=NSC(c3cc(Cl)cc(Cl)c3)(C(F)(F)F)C2)ccc1C(=O)Nc1ncccn1 (stereo not drawn) [Compound A38]
≥ 80%: all assays above

Cc1cc(C2=NSC(c3cc(Cl)cc(Cl)c3)(C(F)(F)F)C2)ccc1C(=O)NC(C)C (stereo not drawn) [Compound A39]
≥ 80%: all assays above

Cc1cc(C2=NSC(c3cc(Cl)cc(Cl)c3)(C(F)(F)F)C2)ccc1C(=O)NCC1CCC1 (stereo not drawn) [Compound A40]
≥ 80%: all assays above

Cc1cc(C2=NSC(c3cc(Cl)cc(Cl)c3)(C(F)(F)F)C2)ccc1C(=O)NCC(F)F (stereo not drawn) [Compound A42]
≥ 80%: all assays above

Cc1cc(C2=NSC(c3cc(Cl)cc(Cl)c3)(C(F)(F)F)C2)ccc1C(=O)Nc1cncnc1 (stereo not drawn) [Compound A48]
≥ 80%: all assays above

Cc1cc(C2=NSC(c3cc(Cl)cc(Cl)c3)(C(F)(F)F)C2)ccc1C(=O)NC1CCc2ccccc21 (stereo not drawn) [Compound A50]
≥ 80%: all assays above

COCCNC(=O)c1ccc(C2=NSC(c3cc(Cl)cc(Cl)c3)(C(F)(F)F)C2)cc1C (stereo not drawn) [Compound A51]
≥ 80%: all assays above
